# Measured values published in ChEMBL document CHEMBL5512677, “Site-Specific Antimicrobial Activity of a Dual-Responsive Ciprofloxacin Prodrug” (J Med Chem, 2024).
# Active and inactive are the calls of the source. No cut-off for these calls is given here.
# Assays:
# Staphylococcus aureus [1] = assay: Antibacterial activity against Staphylococcus aureus BB255 assessed as reduction in bacterial growth by measuring minimum inhibitory concentration incubated for 16 to 20 hrs by serial dilution method; format: functional; settings: time 16-20 hrs
# Staphylococcus aureus [2] = assay: Antibacterial activity against Staphylococcus aureus BB255 assessed as reduction in bacterial growth by measuring minimum bactericidal concentration incubated for 16 to 20 hrs by serial dilution method; format: functional; settings: time 16-20 hrs
# Escherichia coli [3] = assay: Antibacterial activity against Escherichia coli E38 assessed as reduction in bacterial survival rate pre-triggered with nitroreductase for 1 hr followed by bacterial infection and measured after 16 hrs by spectrometer; format: functional, organism-based; settings: time 17.0 hrs
# Escherichia coli [4] = assay: Antibacterial activity against Escherichia coli HB101 assessed as reduction in bacterial growth by measuring minimum bactericidal concentration incubated for 16 to 20 hrs by serial dilution method; format: functional; settings: time 16-20 hrs
# Escherichia coli [5] = assay: Antibacterial activity against Escherichia coli E38 assessed as reduction in bacterial growth by measuring minimum bactericidal concentration incubated for 16 to 20 hrs by serial dilution method; format: functional; settings: time 16-20 hrs
# [6] = Prodrug activation in phosphate buffer saline assessed as Escherichia coli nitroreductase mediated ciprofloxacin metabolite formation measured upto 60 mins in presence of NADH by HPLC analysis; format: ADME; settings: isolated protein, 1 h
# [7] = Retention time of the compound by HPLC analysis; format: physicochemical
# Escherichia coli [8] = assay: Antibacterial activity against Escherichia coli E38 infected in female Swiss Webster mouse skin abscess model assessed as log reduction in bacterial load at 20 mg/kg, sc measured after 3 days relative to control; format: functional; settings: time 3 day
# Escherichia coli [9] = assay: Antibacterial activity against Escherichia coli E38 assessed as reduction in bacterial growth by measuring minimum inhibitory concentration incubated for 16 to 20 hrs by serial dilution method; format: functional; settings: time 16-20 hrs
# [10] = Prodrug activation in phosphate buffer saline assessed as Escherichia coli nitroreductase mediated ciprofloxacin metabolite formation measured after 5 mins in presence of NADH by HPLC analysis; format: ADME; settings: isolated protein
# Escherichia coli [11] = assay: Antibacterial activity against Escherichia coli E38 assessed as reduction in bacterial growth pre-triggered with nitroreductase for 1 hr followed by bacterial infection and measured after 16 hrs by spectrometer; format: functional; settings: time 17 hrs
# Escherichia coli [12] = assay: Antibacterial activity against Escherichia coli HB101 assessed as reduction in bacterial growth by measuring minimum inhibitory concentration incubated for 16 to 20 hrs by serial dilution method; format: functional; settings: time 16-20 hrs
# Escherichia coli [13] = assay: Antibacterial activity against Escherichia coli E38 assessed as reduction in bacterial survival rate by measuring fold reduction in MIC pre-triggered with nitroreductase for 1 hr followed by bacterial infection and measured after 16 hrs by spectrometer; format: functional; settings: time 17 hrs
# [14] = Prodrug activation in phosphate buffer saline assessed as Escherichia coli nitroreductase mediated intermediate formation measured after 60 mins in presence of NADH and 10 ug/ml of NTR by HPLC analysis; settings: isolated protein, 1 h
# Escherichia coli [15] = assay: Antibacterial activity against Escherichia coli E38 harboring high NTR expression and H2S assessed as reduction in bacterial survival incubated for 16 hrs by spectrometric analysis; format: functional, organism-based
# Escherichia coli [16] = assay: Antibacterial activity against Escherichia coli HB101 at 0.5 to 2 times MIC measured after 30 days by broth microdilution method; format: functional, organism-based; settings: time 30.0 day
# [17] = Prodrug activation in phosphate buffer saline assessed as Escherichia coli nitroreductase mediated ciprofloxacin metabolite formation measured after 60 mins in presence of NADH by HPLC analysis; format: ADME; settings: isolated protein, 1 h
# Escherichia coli [18] = assay: Antibacterial activity against Escherichia coli E38 assessed as reduction in bacterial survival rate pre-triggered with nitroreductase and NaSH for 1 hr followed by bacterial infection and measured after 16 hrs by spectrometer; format: functional, organism-based; settings: time 17.0 hrs
# Escherichia coli [19] = assay: Antibacterial activity against Escherichia coli E38 assessed as reduction in bacterial growth pre-triggered with H2S for 1 hr followed by bacterial infection and measured after 16 hrs by spectrometer; format: functional; settings: time 17 hrs
# [20] = Prodrug activation in phosphate buffer saline assessed as Escherichia coli nitroreductase mediated ciprofloxacin metabolite formation measured after 120 mins in presence of NADH by HPLC analysis; format: ADME; settings: isolated protein, 2 h
# [21] = Prodrug activation in phosphate buffer saline assessed as Escherichia coli nitroreductase mediated ciprofloxacin metabolite formation by measuring retention time measured after 180 mins in presence of NADH by HPLC analysis; format: ADME; settings: isolated protein, 3 h
# Escherichia coli [22] = assay: Antibacterial activity against Escherichia coli E38 assessed as reduction in bacterial growth pre-triggered with nitroreductase and H2S for 1 hr followed by bacterial infection and measured after 16 hrs by spectrometer; format: functional; settings: time 17 hrs
# Escherichia coli [23] = assay: Antibacterial activity against Escherichia coli E38 assessed as reduction in bacterial survival rate pre-triggered with NaSH for 1 hr followed by bacterial infection and measured after 16 hrs by spectrometer; format: functional, organism-based; settings: time 17.0 hrs
# Escherichia coli [24] = assay: Antibacterial activity against Escherichia coli HB101 at 0.5 to 2 times MIC measured after 27 days by broth microdilution method; format: functional, organism-based; settings: time 27.0 day
# Escherichia coli [25] = assay: Antibacterial activity against Escherichia coli E38 assessed as reduction in bacterial survival rate by measuring fold reduction in MIC pre-triggered with H2S for 1 hr followed by bacterial infection and measured after 16 hrs by spectrometer; format: functional; settings: time 17 hrs
# Escherichia coli [26] = assay: Antibacterial activity against Escherichia coli E38 infected in female Swiss Webster mouse skin abscess model assessed as reduction in bacterial load at 20 mg/kg, sc measured after 3 days; format: functional, organism-based; settings: time 3.0 day
SMILES,MIC (Staphylococcus aureus [1]) [µg/mL],MBC (Staphylococcus aureus [2]) [µg/mL],Activity (Escherichia coli [3]),MBC (Escherichia coli [4]) [µg/mL],MBC (Escherichia coli [5]) [µg/mL],Drug metabolism [6],Retention_time [7] [min],log(activity) (Escherichia coli [8]),MIC (Escherichia coli [9]) [µg/mL],MIC (Escherichia coli [11]) [µg/mL],MIC (Escherichia coli [12]) [µg/mL],Activity (Escherichia coli [15]),Activity (Escherichia coli [16]),Activity (Escherichia coli [18]),MIC (Escherichia coli [19]) [µg/mL],MIC (Escherichia coli [22]) [µg/mL],Activity (Escherichia coli [23]),further results
O=C(O)c1cn(C2CC2)c2cc(N3CCNCC3)c(F)cc2c1=O [CIPROFLOXACIN],0.25,0.5,Active,0.004,0.015,,,,,,,,,,,,,
O=C(OCc1ccc([N+](=O)[O-])cc1)c1cn(C2CC2)c2cc(N3CCNCC3)c(F)cc2c1=O,16,> 128,Active,1,2,Metabolite_Detected,4.7,2,1,0.063,0.5,inactive,Active,,,,,Drug metabolism [10]: Metabolite_Detected; fold change (FC) (Escherichia coli [13]): 16; Drug metabolism [14]: Metabolite_Notdetected; Drug metabolism [17]: Metabolite_Notdetected
[N-]=[N+]=Nc1ccc(COC(=O)N2CCN(c3cc4c(cc3F)c(=O)c(C(=O)OCc3ccc([N+](=O)[O-])cc3)cn4C3CC3)CC2)cc1,> 128,> 128,inactive,32,> 128,,15.2,2,> 16,> 16,32,inactive,Active,Active,2,0.25,,Drug metabolism [20]: Metabolite_Detected; Retention_time [21]: 2.2 min
[N-]=[N+]=Nc1ccc(COC(=O)N2CCN(c3cc4c(cc3F)c(=O)c(C(=O)O)cn4C3CC3)CC2)cc1,4,> 128,,0.5,2,,12.4,2,1,,0.5,inactive,,,0.063,,Active,Activity (Escherichia coli [24]): inactive; fold change (FC) (Escherichia coli [25]): 16
C[C@H](NC(=O)c1cn(C2CC2)c2cc(N3CCNCC3)c(F)cc2c1=O)c1ccc([N+](=O)[O-])cc1,,,inactive,1,4,Metabolite_Notdetected,,,4,4,1,inactive,,inactive,4,4,inactive,Activity (Escherichia coli [26]): Active
